According to the supplement of paper PMC11061612:

Columns and labels:
SN-38 = compound: CCc1c2c(nc3ccc(O)cc13)-c1cc3c(c(=O)n1C2)COC(=O)[C@]3(O)CC [SN-38]; conditions: max 0.3 µM
Procedure, shortened: (§1)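 Cancer cell lines were dosed for 72 hours (final DMSO typically 0.2%) after 24 hours at 37°C and 5% CO2 in 1536-well plates containing 7.5 μl DMEM/F12 or RPMI with 10% FBS. Viability came from CellTiter-Glo 2.0 luminescence, scaled between blank-well and DMSO-well means, and dose responses were fitted to a two-parameter logistic curve with a non-linear mixed effects model. The single-agent IC50 was obtained from this fit.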

AZD1390 = compound: CC(C)n1c(=O)n(C)c2cnc3cc(F)c(-c4ccc(OCCCN5CCCCC5)nc4)cc3c21 [AZD1390]; conditions: max 0.3 µM
Procedure, shortened: as §1

Taselisib = compound: Cc1nc(-c2cn3c(n2)-c2ccc(-c4cnn(C(C)(C)C(N)=O)c4)cc2OCC3)n(C(C)C)n1 [Taselisib]; conditions: max 10 µM
Procedure, shortened: as §1

AZD0156 = compound: CN(C)CCCOc1ccc(-c2ccc3ncc4c(c3c2)n(C2CCOCC2)c(=O)n4C)cn1 [AZD0156]; conditions: max 3 µM
Procedure, shortened: as §1

Dasatinib = compound: CC1=C(C(=CC=C1)Cl)NC(=O)C2=CN=C(S2)NC3=CC(=NC(=N3)C)N4CCN(CC4)CCO [Dasatinib]; conditions: max 2 µM
Procedure, shortened: as §1

AZD8186 = compound: C[C@@H](Nc1cc(F)cc(F)c1)c1cc(C(=O)N(C)C)cc2c(=O)cc(N3CCOCC3)oc12 [AZD8186]; conditions: max 3 µM
Procedure, shortened: as §1

AZD5153 = compound: COc1nnc2ccc(N3CCC(c4ccc(OCCN5CCN(C)C(=O)[C@H]5C)cc4)CC3)nn12 [AZD5153]; conditions: max 1 µM
Procedure, shortened: as §1

Prexasertib = compound: COc1cccc(OCCCN)c1-c1cc(Nc2cnc(C#N)cn2)n[nH]1 [Prexasertib]; conditions: max 1 µM
Procedure, shortened: as §1

Alisertib = compound: COc1cc(Nc2ncc3c(n2)-c2ccc(Cl)cc2C(c2c(F)cccc2OC)=NC3)ccc1C(=O)O [Alisertib]; conditions: max 10 µM
Procedure, shortened: as §1

AZD5991 = compound: Cc1c2c(nn1C)CSCc1cc(n(C)n1)CSc1cc(c3ccccc3c1)OCCCc1c(C(=O)O)n(C)c3c-2c(Cl)ccc13 [AZD5991]; conditions: max 1 µM
Procedure, shortened: as §1

Lapatinib = compound: CS(=O)(=O)CCNCc1ccc(-c2ccc3ncnc(Nc4ccc(OCc5cccc(F)c5)c(Cl)c4)c3c2)o1 [Lapatinib]; conditions: max 10 µM
Procedure, shortened: as §1

SG3199 = compound: CC1=CN2[C@@H](C1)C=NC3=CC(=C(C=C3C2=O)OC)OCCCCCOC4=C(C=C5C(=C4)N=C[C@@H]6CC(=CN6C5=O)C)OC [SG3199]; conditions: max 0.001 µM
Procedure, shortened: as §1

AZD1775 = compound: C=CCn1c(=O)c2cnc(Nc3ccc(N4CCN(C)CC4)cc3)nc2n1-c1cccc(C(C)(C)O)n1 [AZD1775]; conditions: max 3 µM
Procedure, shortened: as §1

Palbociclib = compound: CC(=O)c1c(C)c2cnc(Nc3ccc(N4CCNCC4)cn3)nc2n(C2CCCC2)c1=O [Palbociclib]; conditions: max 10 µM
Procedure, shortened: as §1

Crizotinib = compound: C[C@@H](Oc1cc(-c2cnn(C3CCNCC3)c2)cnc1N)c1c(Cl)ccc(F)c1Cl [Crizotinib]; conditions: max 10 µM
Procedure, shortened: as §1

Gefitinib = compound: COc1cc2ncnc(Nc3ccc(F)c(Cl)c3)c2cc1OCCCN1CCOCC1 [Gefitinib]; conditions: max 10 µM
Procedure, shortened: as §1

Trametinib = compound: CC(=O)Nc1cccc(-n2c(=O)n(C3CC3)c(=O)c3c(Nc4ccc(I)cc4F)n(C)c(=O)c(C)c32)c1 [Trametinib]; conditions: max 1 µM
Procedure, shortened: as §1

Savolitinib = compound: C[C@@H](c1ccc2nccn2c1)n1nnc2ncc(-c3cnn(C)c3)nc21 [Savolitinib]; conditions: max 1 µM
Procedure, shortened: as §1

AZD4320 = compound: CN(CC[C@H](CSC1=CC=CC=C1)NC2=C(C=C(C=C2)S(=O)(=O)NC(=O)C3=CC=C(C=C3)N4CCC(CC4)[C@H](C5=CC=CC=C5C6=CC=C(C=C6)Cl)O)S(=O)(=O)C(F)(F)F)CCO [AZD4320]; conditions: max 1 µM
Procedure, shortened: as §1

AZD7648 = compound: Cc1cc2ncnn2cc1Nc1ncc2c(n1)n(C1CCOCC1)c(=O)n2C [AZD7648]; conditions: max 10 µM
Procedure, shortened: as §1

AZD2811 = compound: CCN(CCO)CCCOc1ccc2c(Nc3cc(CC(=O)Nc4cccc(F)c4)[nH]n3)ncnc2c1 [AZD2811]; conditions: max 1 µM
Procedure, shortened: as §1

Venetoclax = compound: CC1(C)CCC(CN2CCN(c3ccc(C(=O)NS(=O)(=O)c4ccc(NCC5CCOCC5)c([N+](=O)[O-])c4)c(Oc4cnc5[nH]ccc5c4)c3)CC2)=C(c2ccc(Cl)cc2)C1 [Venetoclax]; conditions: max 1 µM
Procedure, shortened: as §1

AZD6738 = compound: C[C@@H]1COCCN1C2=NC(=NC(=C2)C3(CC3)[S@](=N)(=O)C)C4=C5C=CNC5=NC=C4 [AZD6738]; conditions: max 10 µM
Procedure, shortened: as §1

Doxorubicin = compound: COc1cccc2c1C(=O)c1c(O)c3c(c(O)c1C2=O)C[C@@](O)(C(=O)CO)C[C@@H]3O[C@H]1C[C@H](N)[C@H](O)[C@H](C)O1 [Doxorubicin]; conditions: max 1 µM
Procedure, shortened: as §1

Capivasertib = compound: C1CN(CCC1(C(=O)N[C@@H](CCO)C2=CC=C(C=C2)Cl)N)C3=NC=NC4=C3C=CN4 [Capivasertib]; conditions: max 10 µM
Procedure, shortened: as §1

Olaparib = compound: O=C(c1cc(Cc2n[nH]c(=O)c3ccccc23)ccc1F)N1CCN(C(=O)C2CC2)CC1 [Olaparib]; conditions: max 10 µM
Procedure, shortened: as §1

Selumetinib = compound: Cn1cnc2c(F)c(Nc3ccc(Br)cc3Cl)c(C(=O)NOCCO)cc21 [Selumetinib]; conditions: max 10 µM
Procedure, shortened: as §1

MK-2206 = compound: NC1(c2ccc(-c3nc4ccn5c(=O)[nH]nc5c4cc3-c3ccccc3)cc2)CCC1 [MK-2206]; conditions: max 10 µM
Procedure, shortened: as §1

| Cell Line | IC50, cell viability 72 h (SN-38) | IC50, cell viability 72 h (AZD1390) | IC50, cell viability 72 h (Taselisib) | IC50, cell viability 72 h (AZD0156) | IC50, cell viability 72 h (Dasatinib) | IC50, cell viability 72 h (AZD8186) | IC50, cell viability 72 h (AZD5153) | IC50, cell viability 72 h (Prexasertib) | IC50, cell viability 72 h (Alisertib) | IC50, cell viability 72 h (AZD5991) | IC50, cell viability 72 h (Lapatinib) | IC50, cell viability 72 h (SG3199) | IC50, cell viability 72 h (AZD1775) | IC50, cell viability 72 h (Palbociclib) | IC50, cell viability 72 h (Crizotinib) | IC50, cell viability 72 h (Gefitinib) | IC50, cell viability 72 h (Trametinib) | IC50, cell viability 72 h (Savolitinib) | IC50, cell viability 72 h (AZD4320) | IC50, cell viability 72 h (AZD7648) | IC50, cell viability 72 h (AZD2811) | IC50, cell viability 72 h (Venetoclax) | IC50, cell viability 72 h (AZD6738) | IC50, cell viability 72 h (Doxorubicin) | IC50, cell viability 72 h (Capivasertib) | IC50, cell viability 72 h (Olaparib) | IC50, cell viability 72 h (Selumetinib) | IC50, cell viability 72 h (MK-2206) |
| --- | --- | --- | --- | --- | --- | --- | --- | --- | --- | --- | --- | --- | --- | --- | --- | --- | --- | --- | --- | --- | --- | --- | --- | --- | --- | --- | --- | --- |
| 639-V (Bladder Carcinoma) | 3.66 nM | > 300 nM | 2460 nM | > 3000 nM | 1380 nM | > 3000 nM | 257 nM | 948 nM | 2980 nM | > 1000 nM | > 10000 nM | > 1 nM | 2210 nM | > 10000 nM | > 10000 nM | > 10000 nM | > 1000 nM | > 1000 nM | > 1000 nM | > 10000 nM | > 1000 nM | > 1000 nM | > 10000 nM | 574 nM | > 10000 nM | > 10000 nM | > 10000 nM |  |
| CAL-51 (Breast Carcinoma) | 53 nM | > 300 nM | 1300 nM | > 3000 nM | > 2000 nM | > 3000 nM | 469 nM | 25.3 nM | 6960 nM | > 1000 nM | > 10000 nM | > 1 nM | 583 nM | > 10000 nM | > 10000 nM | > 10000 nM | > 1000 nM | > 1000 nM | > 1000 nM | > 10000 nM | > 1000 nM | > 1000 nM | 1510 nM | 415 nM | 4410 nM | > 10000 nM | > 10000 nM |  |
| COLO-829 (Melanoma) | > 300 nM | > 300 nM | > 10000 nM | > 3000 nM | 598 nM | > 3000 nM | > 1000 nM | > 1000 nM | > 10000 nM | > 1000 nM | > 10000 nM | > 1 nM | > 3000 nM | > 10000 nM | > 10000 nM | > 10000 nM | 279 nM | > 1000 nM | > 1000 nM | > 10000 nM | > 1000 nM | > 1000 nM | > 10000 nM | > 1000 nM | > 10000 nM | > 10000 nM | 8420 nM | > 10000 nM |
| HCC-15 (Squamous Cell Lung Carcinoma) | > 300 nM | > 300 nM | > 10000 nM | > 3000 nM | > 2000 nM | > 3000 nM | > 1000 nM | > 1000 nM | 181 nM | > 1000 nM | > 10000 nM | > 1 nM | 1350 nM | > 10000 nM | > 10000 nM | > 10000 nM | 164 nM | > 1000 nM | 216 nM | > 10000 nM | 657 nM | > 1000 nM | > 10000 nM | > 1000 nM | > 10000 nM | > 10000 nM | 4440 nM |  |
| KARPAS-231 (B-Cell Non-Hodgkin's Lymphoma) | 1.68 nM | > 300 nM | > 10000 nM | > 3000 nM | > 2000 nM | > 3000 nM | > 1000 nM | 12.5 nM | 1020 nM | 31.4 nM | > 10000 nM | > 1 nM | 123 nM | > 10000 nM | > 10000 nM | > 10000 nM | > 1000 nM | > 1000 nM | 21.2 nM | > 10000 nM | 264 nM | 7 nM | 6030 nM | 899 nM | > 10000 nM | > 10000 nM | > 10000 nM |  |
| KYSE-410 (Esophageal Squamous Cell Carcinoma) | > 300 nM | > 300 nM | 2710 nM | > 3000 nM | 1900 nM | > 3000 nM | > 1000 nM | 952 nM | > 10000 nM | > 1000 nM | 8740 nM | > 1 nM | 2210 nM | > 10000 nM | > 10000 nM | > 10000 nM | > 1000 nM | > 1000 nM | > 1000 nM | > 10000 nM | > 1000 nM | > 1000 nM | > 10000 nM | > 1000 nM | > 10000 nM | > 10000 nM | > 10000 nM |  |
